Test results taken from PubChem BioAssay (NCI).
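Cells were grown in 96-well plates and exposed to each compound for 48 hours at five concentrations; endpoints were interpolated linearly between bracketing concentrations, or set to the highest concentration if not reached. At the GI50, growth is halved. TGI marks complete inhibition of growth.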

Key:
Experiment in all cases: growth of human tumour cells (NCI), 48 h
SK-MEL-2 melanoma = system: SK-MEL-2 melanoma
NCI/ADR-RES ovarian = system: NCI/ADR-RES ovarian
CCRF-CEM leukemia = system: CCRF-CEM leukemia
KM12 colon = system: KM12 colon
SW-620 colon = system: SW-620 colon
MALME-3M melanoma = system: MALME-3M melanoma
MDA-MB-231 breast = system: MDA-MB-231 breast
HOP-62 NSCLC = system: HOP-62 NSCLC
SNB-75 CNS = system: SNB-75 CNS
LOX IMVI melanoma = system: LOX IMVI melanoma

SMILES | GI50 (SK-MEL-2 melanoma) [µM] | TGI (SK-MEL-2 melanoma) [µM] | GI50 (NCI/ADR-RES ovarian) [µM] | TGI (NCI/ADR-RES ovarian) [µM] | GI50 (CCRF-CEM leukemia) [µM] | TGI (CCRF-CEM leukemia) [µM] | GI50 (KM12 colon) [µM] | TGI (KM12 colon) [µM] | GI50 (SW-620 colon) [µM] | TGI (SW-620 colon) [µM] | GI50 (MALME-3M melanoma) [µM] | TGI (MALME-3M melanoma) [µM] | GI50 (MDA-MB-231 breast) [µM] | TGI (MDA-MB-231 breast) [µM] | GI50 (HOP-62 NSCLC) [µM] | TGI (HOP-62 NSCLC) [µM] | GI50 (SNB-75 CNS) [µM] | GI50 (LOX IMVI melanoma) [µM] | TGI (LOX IMVI melanoma) [µM] | TGI (SNB-75 CNS) [µM]
COc1ccc(C(=O)Nc2ncc(Cc3cccc(Cl)c3)s2)cc1OC | 0.557 | > 100 | 0.398 | > 100 | 0.626 | > 100 | 0.0547 | > 100 | 0.0567 | > 100 | 0.748 | > 100 | 1.77 | > 100 | 0.546 | > 100 | 0.405 | 0.0197 | > 100 | –
CCOC(=O)[C@@H](C)C[C@H](Cc1ccccc1)NC(=O)c1nc([C@@H](C[C@H](C(C)C)N(C)C(=O)[C@@H](NC(=O)[C@H]2CCCCN2C)C(C)C)OC(C)=O)sc1CCOCc1ccccc1 | 0.0639 | 2.39 | 0.503 | 3.98 | 0.0795 | > 6.52 | 0.0442 | 1.48 | 0.064 | > 6.6 | 0.0602 | 2.17 | 0.175 | 1.02 | 0.226 | 2.91 | 0.0433 | 0.0609 | 1.54 | 2.76
CCOC(=O)c1ccc(Nc2sc(C(=O)c3ccc(Br)cc3)c(N)c2C#N)cc1 | 1.27 | > 100 | 0.842 | > 100 | 1.43 | > 100 | 0.775 | > 100 | 0.584 | > 100 | 3.66 | > 100 | 2.92 | > 100 | 1.56 | > 100 | 0.496 | 1.64 | > 100 | 7.61
Cc1cccc(-c2[nH]ncc2-c2ccc3ncccc3n2)n1 | 10.7 | > 25 | 13.7 | > 25 | 12.4 | > 25 | 9.51 | > 25 | 9.88 | > 25 | > 25 | > 25 | 14.5 | > 25 | 9.59 | > 25 | 5.74 | 7.56 | > 25 | > 23.9
CCOC(=O)c1ccccc1OC(=O)NNc1ccccc1 | – | > 29.3 | 3.8 | > 100 | 1.8 | > 100 | 0.173 | > 56.4 | 12.4 | > 100 | 5.44 | > 100 | 10.5 | > 100 | > 84.2 | > 100 | > 60.4 | 5 | > 100 | > 100
CC1(C)N=C(N)N=C(N)N1c1ccc(CCCCc2ccccc2)c(Cl)c1 | 0.0394 | 12.4 | 6.74 | > 100 | 0.0374 | 14.2 | 0.059 | 1.42 | < 0.01 | 5.97 | 0.855 | 8.93 | 0.444 | 5.85 | 0.0672 | 5.46 | 0.124 | 0.0131 | 1.52 | 5.87
C=C(C)[C@@H]1CC[C@]2(COCCC#N)CC[C@]3(C)[C@H](CC[C@@H]4[C@@](C)(CCCNCCC#N)[C@H](C(=C)C)CC[C@]43C)[C@@H]12 | 10.7 | 25.4 | 20.7 | > 50 | 10.8 | 38.5 | 15.6 | > 50 | 11.5 | 31.2 | 8.42 | 16.2 | 7.83 | 17.7 | 49.7 | > 50 | > 50 | 8.47 | 16.7 | > 50
Cc1ccc(NC(=O)c2ccc(CN3CCN(C)CC3)cc2)cc1Nc1nccc(-c2cccnc2)n1 | 22.1 | 54.8 | 23.8 | 68.3 | 18.4 | 71.1 | 18.8 | 41.3 | 24.3 | 54.7 | 16.5 | 32 | 18.3 | 46.2 | 21.9 | 47 | 18.7 | 13.1 | 34.8 | 34.2
Cn1cc(C2=C(c3ccccc3[N+](=O)[O-])C(=O)NC2=O)c2ccccc21 | 2.92 | 9.55 | 6.32 | > 21.6 | – | – | 3.25 | 13.3 | 3.97 | > 20 | 9.55 | > 20.8 | 4.72 | 19.6 | 5.35 | > 23.3 | 0.0705 | 3.13 | > 25 | 2.39
C[C@]12CCc3nc(Nc4cccc(O)c4)sc3C1=CC[C@@H]1[C@@H]2CC[C@]2(C)/C(=N\NC(N)=S)CC[C@@H]12 | 2.32 | 7.36 | 3.07 | > 100 | 1.97 | > 100 | – | – | 1.91 | 3.8 | 1.6 | 3.51 | 1.75 | 4.95 | 1.86 | 4.07 | 0.792 | 1.52 | 2.85 | 7.01
CC[C@H]1CN2CCc3cc(OC)c(OC)cc3C2C[C@@H]1CC1NCCc2cc(OC)c(OC)cc21 (some centres not stated) | – | 0.0542 | – | 1.19 | 0.0186 | 0.204 | – | 0.0986 | – | 0.238 | – | 0.222 | – | 0.0994 | – | 0.0815 | – | – | 0.0224 | –
CC[C@@H]1[C@@H](C)O[C@@](O)([C@@H](C)[C@H](O)[C@H](C)[C@H]2OC(=O)/C=C/C=C/[C@H](C)[C@@H]([C@@H](C)[C@@H](O)[C@H](C)[C@@]3(O)C[C@@H](O[C@H]4C[C@@H](O)[C@H](O)C(C)O4)[C@H](CC)[C@@H](C)O3)OC(=O)/C=C/C=C/[C@@H]2C)C[C@H]1O[C@@H]1C[C@@H](O)[C@H](O)C(C)O1 (some centres not stated) | 0.0808 | 0.197 | 1.05 | 7.04 | – | – | 0.125 | 0.413 | 0.108 | 0.454 | 0.0857 | 0.234 | 0.0586 | 0.139 | 0.073 | 0.171 | 0.0495 | 0.0611 | 0.117 | 0.149
